The values that follow come from publication PMC1891437, “Hexose-6-phosphate Dehydrogenase Modulates 11β-Hydroxysteroid Dehydrogenase Type 1-Dependent Metabolism of 7-keto- and 7β-hydroxy-neurosteroids” (PLoS ONE, 2007).

The target of assay [1] is T1, 11β-HSD1 (Homo sapiens, UniProt P28845).
T1 construct: expressed in transfected cells; host or cells: HEK-293 (transient, Ca2+-phosphate precipitation)
Kind of assay: 7-keto-steroid reductase and 7-hydroxy-steroid dehydrogenase activity in intact transfected HEK-293 cells (GC-MS). The class given is cell-based. The conditions noted are these: 1 µM inhibitor, intact HEK-293 cells. The protocol: (§1) HEK-293 cells were cultured in Dulbecco's Modified Eagle's Medium (DMEM) supplemented with 10% fetal calf serum (FCS), 50 units/ml penicillin, 50 µg/ml streptomycin and 2 mM glutamine. Cells were transfected with expression plasmids for FLAG-tagged 11β-HSD1 and myc-tagged H6PDH or pcDNA3.1 control using the Ca^2+-phosphate precipitation method. The epitope tags had no effect on enzymatic activities or expression levels of 11β-HSD1 and H6PDH [10], [49]. A total amount of 8 µg DNA was used per 10 cm culture dish or 2 µg DNA per well of a six-well culture plate.
HEK-293 cells were seeded in six-well plates at a density of 900′000 cells per well. After 24 h, cells were transfected with expression vector for 11β-HSD1 or co-transfected with vectors for 11β-HSD1 and H6PDH. An empty pcDNA3.1 plasmid was used in transfections lacking H6PDH to adjust total DNA amounts in all samples. The medium was replaced 18 h post-transfection by steroid-free medium followed by addition of 1 µM of the steroid substrate to be tested. […] After incubation for various time intervals, reactions were terminated by addition of an equal volume of dichloromethane, containing 500 ng medroxyprogesterone as an internal standard. Since radiolabeled C7-oxygenated metabolites were not commercially available, we applied GC-MS for detection. […]

Assay [2] has as its target T1, 11β-HSD1. Kind of assay: 11β-HSD1 dehydrogenase activity (oxidation of cortisol) in lysates of HEK-293 cells expressing recombinant enzyme, competition by 7-oxygenated neurosteroids. The class given is biochemical. The conditions noted are these: HEK-293 lysates; 50 nM [3H]-cortisol, 500 µM cofactor NAD+; mean±S.D., four experiments. The protocol: as §1
(§2) The enzyme activity in intact cells was measured as described. Briefly, HEK-293 cells, grown in 10 cm culture dishes and transfected with FLAG-tagged 11β-HSD1 alone or co-transfected with myc-tagged H6PDH, were detached 24 h post-transfection and distributed in 96-well plates at a density of 30′000–40′000 cells per well. After 16 h, cells were incubated in serum- and steroid-free medium and the conversion of radiolabeled cortisone to cortisol (or the reverse activity) was determined upon incubation for 1 h at 37°C in a total volume of 50 µl containing 200 nM cortisone (or cortisol). The reaction was stopped by adding methanol containing 2 mM unlabeled cortisone and cortisol, followed by separation of steroids by TLC and scintillation counting. Measurements with freshly prepared cell lysates were carried out in the presence of [1,2,6,7-^3H]-cortisone and cofactor NADPH at final concentrations of 200 nM and 500 µM for the reductase reaction and with 50 nM [1,2,6,7-^3H]-cortisol and 500 µM cofactor NAD^+ for the dehydrogenase reaction, respectively, in the absence or presence of various concentrations of competing 7-oxygenated neurosteroid ligands. The concentration of dimethylsulfoxide or methanol from the solvent was 0.1% in all reactions and had no effect on enzyme activity. Data (mean±SD) were obtained from four independent experiments and were calculated using the Data Analysis Toolbox (Elsevier MDL, Allschwil, Switzerland).

Assay [3] addresses T1, 11β-HSD1. Kind of assay: 11β-HSD1 reductase activity (reduction of cortisone) in lysates of HEK-293 cells expressing recombinant enzyme, competition by 7-oxygenated neurosteroids. As to conditions: HEK-293 lysates; 200 nM [3H]-cortisone, 500 µM NADPH; mean±S.D., four experiments. The assay is classed as biochemical. The protocol:
as §1, §2

Assay [4] has as its target T1, 11β-HSD1. Kind of assay: Steady state ratio of cortisone to cortisol in intact HEK-293 cells expressing 11β-HSD1. The class given is cell-based. The conditions noted are these: 16 h, 20 µM inhibitor. Here is the method:
as §1, §2

Assay [5] concerns the target T2, 11β-HSD1/H6PDH (Homo sapiens, UniProt P28845).
T2 construct: expressed in transfected cells; host or cells: HEK-293 (transient co-transfection, Ca2+-phosphate precipitation)
Kind of assay: Steady state ratio of cortisone to cortisol in intact HEK-293 cells coexpressing 11β-HSD1 and H6PDH. The class given is cell-based. The conditions noted are these: 11β-HSD1/H6PDH cells, 16 h, 20 µM inhibitor, n = 4. Here is the method:
as §1
as §2, with “After 16 h, cells were incubated in serum- and steroid-free medium and the conversion of radiolabeled cortisone to cortisol (or the reverse activity) was determined upon incubation for 1 h at 37°C in a total volume of 50 µl containing 200 nM cortisone (or cortisol).” left out

The mark [6] stands for this setting: 11β-HSD1 cells, 200 nM radiolabeled cortisone, n = 4.

T2 sequence (P28845 whole entry): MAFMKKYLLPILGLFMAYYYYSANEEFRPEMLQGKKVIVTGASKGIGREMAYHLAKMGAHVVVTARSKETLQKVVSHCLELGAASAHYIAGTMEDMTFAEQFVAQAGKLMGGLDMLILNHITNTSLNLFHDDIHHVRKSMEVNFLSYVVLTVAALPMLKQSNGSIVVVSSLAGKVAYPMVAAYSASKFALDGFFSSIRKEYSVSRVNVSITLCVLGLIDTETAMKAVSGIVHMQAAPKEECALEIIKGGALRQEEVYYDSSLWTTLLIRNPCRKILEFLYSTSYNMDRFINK
T1 sequence (P28845 whole entry): as above

On to `C1CCc2nnc(C34CC5CC(CC(C5)C3)C4)n2CC1` [T0504, 5H-1,2,4-triazolo(4,3-a)azepine,6,7,8,9-tetrahydro-3-tricyclo(3·3·1·13·7)dec-1-yl], for which, in assay [1] (1 µM 7α-hydroxy-DHEA substrate, 3 h), the “effect of inhibitor on 11β-HSD1-dependent metabolism of 7α-hydroxy-DHEA” value was “prevented the formation of 7β-hydroxy-DHEA and 7-keto-DHEA”. The “effect of inhibitor on 11β-HSD1-dependent metabolism of 7-ketopregnenolone and 5α-androstane-3β-ol-7,17-dione” value in assay [1] (1 µM substrate, 3 h or 6 h) was “almost completely abolished”.
One may read the IC50 as the concentration that gives 50% inhibition. With `C[C@]12CC[C@H](O)C[C@@H]1CC(=O)[C@@H]1[C@@H]2CC[C@]2(C)C(=O)CC[C@@H]12` [5α-androstane-3β-ol-7,17dione, 5α-androstane-3β-ol-7,17-dione], the IC50 is 18 ± 1 µM in assay [2] and 0.5 ± 0.11 µM in assay [3].
As to `O=C1CC(c2ccccc2)Oc2ccccc21` (stereo not shown) [Flavanone, flavanone], in assay [4] (11β-HSD1 cells, 200 nM radiolabeled cortisol, n = 4), the “cortisol, percentage of total glucocorticoid (oxidation of cortisol to cortisone)” value is recorded as 61.2%. Further, in assay [4] (setting [6]), the “cortisol, percentage of total glucocorticoid (reduction of cortisone to cortisol)” value is 74.1% and the “cortisone, percentage of total glucocorticoid (reduction of cortisone to cortisol)” value was found to be 25.9%. In addition, the “effect of inhibitor on the steady state ratio of glucocorticoids” value in assay [4] (HEK-293 cells with 11β-HSD1 alone or with H6PDH) was “little or no effect on the steady state ratio of glucocorticoids”. In assay [5] (200 nM radiolabeled cortisol), the “cortisol, percentage of total glucocorticoid (oxidation of cortisol to cortisone)” value was 90.9% and the “cortisone, percentage of total glucocorticoid (oxidation of cortisol to cortisone)” value is 9.1%. Moreover, in assay [5] (200 nM radiolabeled cortisone), the “cortisol, percentage of total glucocorticoid (reduction of cortisone to cortisol)” value is recorded as 91.7% and the “cortisone, percentage of total glucocorticoid (reduction of cortisone to cortisol)” value was found to be 8.3%.
As to `C[C@]12CC[C@H](O)CC1=C[C@@H](O)[C@@H]1[C@@H]2CC[C@]2(C)C(=O)CC[C@@H]12` [7α-hydroxydehydroepiandrosterone], the IC50 in assay [2] is 16 ± 1 µM; in assay [3], 45 ± 2 µM.
The like results for `C[C@]12CC[C@H](O)CC1=CC(=O)[C@@H]1[C@@H]2CC[C@]2(C)C(=O)CC[C@@H]12` [7-ketodehydroepiandrosterone] were, in that order, 29 ± 5 µM and 0.82 ± 0.07 µM.
For `C[C@]12CC[C@H](O)CC1=C[C@H](O)[C@@H]1[C@@H]2CC[C@]2(C)C(=O)CC[C@@H]12` [7β-hydroxydehydroepiandrosterone] the same measures were 0.54 ± 0.05 µM and 7.7 ± 0.8 µM.
The like results for `CC(=O)[C@H]1CC[C@H]2[C@@H]3C(=O)C=C4C[C@@H](O)CC[C@]4(C)[C@H]3CC[C@]12C` [7-ketopregnenolone] were, in that order, 5.4 ± 0.5 µM and 0.68 ± 0.11 µM.
`CC(=O)[C@H]1CC[C@H]2[C@@H]3[C@@H](O)C=C4C[C@@H](O)CC[C@]4(C)[C@H]3CC[C@]12C` [7β-hydroxypregnenolone]: the half-maximal inhibitory concentration (IC50) was 1.34 ± 0.49 µM in assay [2] and 2.4 ± 0.5 µM in assay [3].
